How the values were obtained:
SW1 tumors = assay: Anti-PD-1 mouse model, SW1; type: in vivo, C3H/HeN mice
Excerpt: FIGS. 21A and 21B Administration of combination L-fucose and anti-PD-1 suppresses tumors and increases intra-tumoral CD4+T central and effector memory cells (a) Volumetric growth curves for SW1 tumors in C3H/HeN mice (left) and SM1 tumors in C57BL/6 mice (right) fed L-fucose (LF) and treated with PBS (control) or anti-PD-1. (concurrent initiation of LF anti-PD1 (▾)). The tumor growth curves are means±SEM from ≥7 mice per group. (b) Volumetric growth curves for SM1 tumors in C57BL/6 mice fed ±L-fucose (LF) and treated with PBS (control) or anti-PD-1 (PD-1). (concurrent initiation of LF±PD1 (▾)). The tumor growth curves are means±SEM from ≥7 mice per group. *=p<0.05. At Day 7 (prior to administration of LF or PD1), Day 21 (endpoint for tumors of control-treated mice), Day 31 (endpoint for tumors of LF-treated mice), Day 63 (endpoint for tumors of PD1-treated mice), the primary tumors (Tumor) and draining lymph nodes (LN) of 4-5 mice per treatment group were analyzed by flow cytometry for intratumor levels of CD4+ and CD8+T subpopulations (naive/terminal, stem central/central/effector memory) and dendritic cell (DC) subpopulations (cDC1, cDC2, and monocyte-derived DC (moDC)) as in FIG. 15. Proportions of CD4+, CD8+, and DC subpopulations in each organ at each timepoints are represented by the color-coded pie charts (each pie chart represents 4-5 mice). […]

dendritic cells = assay: TLR profiles of bone marrow-derived dendritic cells (RT-qPCR); type: cell-based, Balb/C mice; conditions: 250 uM L-fucose, 96 hours, then LPS 24 hours
Procedure: Bone marrow was harvested from either 4-week-old (young) or 6-month-old (old) Balb/C mice. Cells were isolated and cultured in DC maturation cocktail ([…], […], ±250 uM L-fucose) for 96 hours. At 96 hours the cells were treated with 10 ug/ml LPS for 24 hours after which the cells were harvested, and the RNA was extracted. RT-qPCR was performed. Data represents fold change of indicated genes normalized to values of young mice. N=3 mice per age group.

[1] = test system: SW1 tumors (shNT, shH2K1, shEB1, EB1 WT or N46G); assay: H2K1/EB1 knockdown and glyco-fucomutant EB1 reconstitution mouse model; type: in vivo, C3H/HeN mice
Excerpt: All animals were housed at the Vincent A. Stabile Research building animal facility at H. Lee Moffitt Cancer Center & Research Institute, which is fully accredited by the Association for Assessment and Accreditation of Laboratory Animal Care International (AAALAC, #434), and are managed in accordance with the Guide for the Care and Use of Laboratory Animals (“The Guide”), the Animal Welfare Regulations Title 9 Code of Federal Regulations Subchapter A, “Animal Welfare”, Parts 1-3 (AWR), the Public Health Service Policy on Humane Care and Use of Laboratory Animals (PHS Policy), and by the USF Institutional Animal Care and Use Committee's Principles and Procedures of Animal Care and Use (IACUC Principles). The experiments and protocols detailed in this study received institutional approval by the Moffitt IACUC (RIS00001625). Four-to-six-week-old female C3H/HeN and male C57BL6 mice were purchased from Charles Rivers Laboratories for the indicated experiments. Four-to-six-week-old male NSG mice from the Lau laboratory breeding colony were used for the indicated experiments. Power calculations were used to determine mouse cohort sizes to detect significant changes in tumor sizes. In general, 10 mice per indicated cohort to accommodate for incidental loss of mice due to issues beyond our control (e.g., incidental tumor ulceration that required exclusion from the study). Mouse tumor volumes were measured using length, width and depth divided by 2. At each experimental endpoint, mice were humanely euthanized using CO2 inhalation in accordance to the American Veterinary Medical Association guidelines. […] For all mouse models, 1×10^6 melanoma cells were injected subcutaneously in the right hind flanks of each mouse. Between 7-14 days, when the tumor volumes reached ˜150 mm^3, the mice were either supplemented with or without 100 mM L-fucose (Biosynth (Oak Terrace, IL)) via drinking water, which was provided ad libitum. When the tumors reached ˜2 cm^3, the animals were sacrificed, and the tumors either processed for flow cytometric profiling or for histological analysis as indicated. […]

**Q.** Which results are given for `C[C@H](O)[C@@H](O)[C@@H](O)[C@H](O)C=O` [L-fucose]?
**A.** efficacy of anti-PD1 in combination with oral L-fuc (SW1 tumors): did not enhance; TLR profiles of dendritic cells (dendritic cells): alters; L-fuc-triggered tumor suppression and induction of total itICs ([1]; EB1 knockdown): completely abolished; control (shNT) tumor growth ([1]; non-targeting shRNA SW1 tumors): impaired; L-fuc-induced TIL and tumor growth suppression after EB1 knockdown and reconstitution ([1]; shEB1 tumors reconstituted with EB1 WT or N46G): rescued by reconstitution with only WT but not glyco-fucomutant EB1
